Read-outs that look alike come from different tables or passages of the source.
Tests used:
[1] = Mouse PK; assay type: in vivo
[2] = Rat PK; assay type: in vivo
[3] = Dog PK; assay type: in vivo; conditions: for Dog PK Cl / Dog PK Vd: 0.2mg/kg i.v.
[4] = test system: COLO205; test: 24 hour TCF/LEF reporter assay, COLO205; assay type: cell-based; conditions: Homo sapiens, COLO 205, 24 h, read-out: 24 hour TCF/LEF Reporter assay IC50
[5] = test system: DLD1; test: 24 hour TCF/LEF reporter assay, DLD1; assay type: cell-based; conditions: Homo sapiens, DLD-1, 24 h, read-out: 24 hour TCF/LEF Reporter assay IC50
[6] = test system: LS180; test: 24 hour TCF/LEF reporter assay, LS180; assay type: cell-based; conditions: Homo sapiens, LS180, 24 h, read-out: 24 hour TCF/LEF Reporter assay IC50
[7] = test system: LS174T; test: 24 hour TCF/LEF reporter assay, LS174T; assay type: cell-based; conditions: Homo sapiens, read-out: 24 hour TCF/LEF Reporter assay IC50
[8] = test system: RKO; test: 24 hour reporter assay, RKO negative control (EEF1A1 promoter-reporter); assay type: cell-based; conditions: Homo sapiens, RKO, read-out: 24 hour TCF/LEF Reporter assay IC50
[9] = test system: SW837; test: 24 hour TCF/LEF reporter assay, SW837; assay type: cell-based; conditions: Homo sapiens, SW837, 24 h, read-out: 24 hour TCF/LEF Reporter assay IC50
[10] = test system: SW620 human colorectal cancer xenografts; test: SW620 human colorectal cancer xenograft, tumor growth inhibition; assay type: in vivo
[11] = test system: LS1034 colorectal cancer xenografts; test: LS1034 colorectal cancer xenograft, tumor growth inhibition; assay type: in vivo, human
[12] = test system: p-STAT1^SER727 in SW620 tumor xenografts; test: p-STAT1 SER727 level in SW620 xenografts (pharmacodynamics); assay type: in vivo, human
Description: As with 3, 10 mg/kg of 4 inhibited the pathway biomarker for 6 hr, but was not sufficient for antitumor activity in SW620 xenografts (Figure 2A and Figure 2—source data 1).

[13] = test system: MV-4-11 AML xenograft; test: MV-4-11 AML subcutaneous xenograft; assay type: in vivo, human
[14] = test system: Wistar rats; test: 14-day oral tolerability study in rats; assay type: in vivo; conditions: for Target organs: Rat
Description: Animals were culled 24 hr after the last dose. Additional satellite animals for toxicokinetic evaluations were included.

[15] = test system: RKO; test: 96 hour proliferation GI50, RKO; conditions: Homo sapiens, read-out: 96 hour GI50
[16] = test system: HT29; test: 96 hour proliferation GI50, HT29; conditions: Homo sapiens, HT-29, 96 h, read-out: 96 hour GI50
[17] = test system: DLD1; test: 96 hour proliferation GI50, DLD1; conditions: Homo sapiens, DLD-1, 96 h, read-out: 96 hour GI50
[18] = test system: SW948; test: 96 hour proliferation GI50, SW948; conditions: Homo sapiens, SW948, 96 h, read-out: 96 hour GI50
[19] = test system: LS513; test: 96 hour proliferation GI50, LS513; conditions: Homo sapiens, LS-513, 96 h, read-out: 96 hour GI50
[20] = test system: LS180; test: 96 hour proliferation GI50, LS180; conditions: Homo sapiens, LS180, 96 h, read-out: 96 hour GI50
[21] = test system: SW620; test: 96 hour proliferation GI50, SW620; conditions: Homo sapiens, SW-620, 96 h, read-out: 96 hour GI50
[22] = test system: SW837; test: 96 hour proliferation GI50, SW837; conditions: Homo sapiens, SW837, 96 h, read-out: 96 hour GI50
[23] = test system: LS174T; test: 96 hour proliferation GI50, LS174T; conditions: Homo sapiens, read-out: 96 hour GI50
[24] = test system: COLO205; test: 96 hour proliferation GI50, COLO205; conditions: Homo sapiens, COLO 205, 96 h, read-out: 96 hour GI50
[25] = test system: Beagle dogs; test: 14-day oral tolerability study in dogs; conditions: for Target organs: Dog; for Fold of efficacious dose; 10 mg/kg / Fold of efficacious dose; 30 mg/kg: CMPD 4, dog 20 mg/kg
[26] = test system: LS174T; test: LS174T basal WNT-pathway luciferase reporter
[27] = test system: p-STAT1^SER727; test: Inhibition of STAT1 SER727 phosphorylation in cells (target-engagement biomarker)
[28] = low dose 5 mg/kg daily oral for 14 days

With `Cn1ncc2cc(-c3cnc(N)c(Cl)c3N3CCC4(CCNC4=O)CC3)ccc21` [CMPD 3] as the compound, how does the “Mouse PK Cl” value ([1]; 0.2mg/kg i.v.) read?
The value was 10.2 mL/min/kg.

What about the “Mouse PK Vd” value ([1]; 0.2mg/kg i.v.) of the same compound?
The value was 0.63 L/kg.

What about the “Rat PK Cl” value ([2]; 0.2mg/kg i.v.) of the same compound?
Its value is 24.8 mL/min/kg.

And the “Rat PK Vd” value ([2]; 0.2mg/kg i.v.)?
Its value is 1.99 L/kg.

What about the “Dog PK Cl” value [3] of the same compound?
Its value is 17.8 mL/min/kg.

What about the “Dog PK Vd” value [3] of the same compound?
The value was 1.4 L/kg.

And the IC50 [4]?
Its IC50 is 15 nM.

What about the IC50 [5] of the same compound?
Its IC50 is 173 nM.

And the IC50 [6]?
Its IC50 is 28 nM.

And the IC50 [7]?
The IC50 was 39 nM.

What about the IC50 [8] of the same compound?
The IC50 was over 30000 nM.

And the IC50 [9]?
Its IC50 is 14 nM.

And the TGI ([10]; 5 x 1 mg/kg x doses/day, day 14, nr = no response, P ns)?
The TGI was “nr”.

And the TGI ([10]; 10 x 1 mg/kg x doses/day, day 14, P ns)?
Its TGI is 33%.

And the TGI ([10]; 30 x 1 mg/kg x doses/day, day 14, 8 mice, P <0.05)?
The TGI was 48%.

And the TGI ([10]; 30 x 1b mg/kg x doses/day, day 14, 9 mice, P <0.01)?
Its TGI is 44%.

And the TGI ([10]; 30 x 2 (5/7 d) and x 1 (2/7 d)e mg/kg x doses/day, day 14, P <0.01)?
The TGI was 44%.

What about the TGI ([11]; 30 x 1 (5/7 d) mg/kg x doses/day, day 21, P <0.001) of the same compound?
The TGI was 55%.

And the “Time biomarker (p-STAT1^SER727) inhibition maintained” value ([12]; SW620 tumor xenografts, single treatment with 30 mg/kg)?
The value was “approximately 10 hr”.

What about the TGI ([13]; 10 mg/kg po qd monotherapy) of the same compound?
The TGI was 100%.

What about the Target organs ([14]; high dose 20 mg/kg daily oral for 14 days (CMPD 3)) of the same compound?
Its Target organs is “Bone, bone marrow, heart, liver, lung, lymph nodes, pancreas, reproductive tract (m and f), spleen, thymus”.

What about the Target organs [14, 28] of the same compound?
The Target organs was “Bone, bone, marrow, heart, liver, lung, lymph nodes, pancreas, reproductive tract (m), spleen, thymus”.

And the Target organs ([14]; mid dose 10 mg/kg daily oral for 14 days (CMPD 3))?
Its Target organs is “Bone, bone marrow, heart, liver, lung, lymph nodes, pancreas, reproductive tract (m and f), spleen, thymus”.

And the GI50 [15]?
Its GI50 is over 30000 nM.

What about the GI50 [16] of the same compound?
Its GI50 is over 30000 nM.

What about the GI50 [17] of the same compound?
The GI50 was over 30000 nM.

And the GI50 [18]?
The GI50 was over 30000 nM.

And the GI50 [19]?
Its GI50 is over 30000 nM.

What about the GI50 [20] of the same compound?
The GI50 was 6670 nM.

What about the GI50 [21] of the same compound?
Its GI50 is 1860 nM.

And the GI50 [22]?
The GI50 was 3110 nM.

And the GI50 [23]?
Its GI50 is over 30000 nM.

What about the GI50 [24] of the same compound?
Its GI50 is over 30000 nM.

And the Target organs [25, 28]?
Its Target organs is “Bone marrow, gastrointestinal mucosa, heart, lymphatic system”.

What about the IC50 ([26]; Homo sapiens, LS174T, read-out: LS174T IC50) of the same compound?
Its IC50 is 33.3 ± 12.8 nM.

What about the IC50 ([27]; read-out: p-STAT1^SER727 IC50, mean ± s.d. or *± range) of the same compound?
Its IC50 is 22 ± 12 nM.

What about the IC50 ([27]; read-out: p-STAT1^SER727 IC50; mean ± s.d. or *± range) of the same compound?
The IC50 was 25.5 ± 12 nM.

Which results are given for `Cc1n[nH]c2ncc(C(=O)N3CCC[C@H]3c3ccc(Cl)cc3)cc12` [CMPD 4]?
Mouse PK Cl ([1]; 0.2mg/kg i.v.): 22.8 mL/min/kg; Mouse PK F ([1]; 0.2mg/kg i.v. or 0.5mg/kg p.o.): 25%; Vd ([1]; female, NMRI, mouse, in vivo, iv, 0.2mg/kg i.v.): 0.59 L/kg; Rat PK Vd ([2]; 0.2mg/kg i.v.): 1.62 L/kg; Rat PK F ([2]; 0.2mg/kg i.v. or 0.5mg/kg p.o.): 66%; clearance ([2]; male, Wistar, rat, in vivo, iv, 0.2mg/kg i.v., read-out: Rat PK Cl (converted)): 25 mL/min/kg; Dog PK Cl [3]: 22.5 mL/min/kg; Dog PK Vd [3]: 1.47 L/kg; Dog PK F ([3]; 0.2mg/kg i.v. or 0.5mg/kg p.o.): 39%; IC50 [4]: 9 nM; IC50 [5]: 97 nM; IC50 [6]: 31 nM; IC50 [7]: 31 nM; IC50 [8]: > 30000 nM; IC50 [9]: 8 nM; TGI ([10]; 5 x 2 mg/kg x doses/day, day 13, nr = no response, P ns): nr; TGI ([10]; 10 x 1 mg/kg x doses/day, day 13, nr = no response, P ns): nr; TGI ([10]; 50 x 2b mg/kg x doses/day, day 16, P ns): 51%; TGI ([10]; 100 x 1 mg/kg x doses/day, day 16, P ns): 43%; TGI ([11]; 50 x 2 mg/kg x doses/day, day 22, P ns): 52%; TGI ([11]; 100 x 1 mg/kg x doses/day, day 22, P ns): 30%; Time pathway biomarker (p-STAT1^SER727) inhibited ([12]; SW620 xenografts, 10 mg/kg): 6 h; Target inhibition by p-STAT1^SER727 ([13]; 2 hr post-treatment): near maximal target inhibition; Fold of efficacious dose; 10 mg/kg ([14]; CMPD 4, rat 10 mg/kg, female): ~2.4; Fold of efficacious dose; 30 mg/kg ([14]; CMPD 4, rat 10 mg/kg, female): ~0.8; Fold of efficacious dose; 10 mg/kg ([14]; CMPD 4, rat 10 mg/kg, male): ~0.9; Fold of efficacious dose; 30 mg/kg ([14]; CMPD 4, rat 10 mg/kg, male): ~0.3; Fold of efficacious dose; 10 mg/kg ([14]; CMPD 4, rat 20 mg/kg, female): ~5.7; Fold of efficacious dose; 30 mg/kg ([14]; CMPD 4, rat 20 mg/kg, female): ~1.9; Fold of efficacious dose; 10 mg/kg ([14]; CMPD 4, rat 20 mg/kg, male): ~3.9; Fold of efficacious dose; 30 mg/kg ([14]; CMPD 4, rat 20 mg/kg, male): ~1.3; Fold of efficacious dose; 10 mg/kg ([14]; CMPD 4, rat 60 mg/kg, female): ~23.1; Fold of efficacious dose; 30 mg/kg ([14]; CMPD 4, rat 60 mg/kg, female): ~7.7; Fold of efficacious dose; 10 mg/kg ([14]; CMPD 4, rat 60 mg/kg, male): ~10.8; Fold of efficacious dose; 30 mg/kg ([14]; CMPD 4, rat 60 mg/kg, male): ~3.6; Target organs ([14]; high dose 60 mg/kg daily oral for 14 days): Bone, bone marrow, brain, heart, intestines, liver, lung, lymph nodes, mammary gland, pancreas, reproductive tract (m and f), skin, spleen, stomach, thymus; Target organs ([14]; low dose 10 mg/kg daily oral for 14 days (CMPD 4)): Bone, bone marrow, intestines, liver, lung, lymph nodes, mammary gland, pancreas, reproductive tract (m and f), skin, spleen, stomach, thymus.; Target organs ([14]; mid dose 20 mg/kg daily oral for 14 days (CMPD 4)): Bone, bone marrow, heart, intestines, liver, lung, lymph nodes, mammary gland, pancreas, reproductive tract (m and f), skin, spleen, stomach, thymus; GI50 [15]: > 30000 nM; GI50 [16]: > 30000 nM; GI50 [17]: > 30000 nM; GI50 [18]: > 30000 nM; GI50 [19]: > 30000 nM; GI50 [20]: > 30000 nM; GI50 [21]: > 30000 nM; GI50 [22]: > 30000 nM; GI50 [23]: > 30000 nM; GI50 [24]: > 30000 nM; Fold of efficacious dose; 10 mg/kg ([25]; female): ~46; Fold of efficacious dose; 30 mg/kg ([25]; female): ~15; Fold of efficacious dose; 10 mg/kg ([25]; male): ~22; Fold of efficacious dose; 30 mg/kg ([25]; male): ~7; Target organs ([25]; low dose 20 mg/kg daily oral for 14 days): Bone marrow, heart, Intestines, lymphatic system; IC50 ([26]; Homo sapiens, LS174T, read-out: LS174T IC50, basal WNT-pathway luciferase reporter, mean ± s.d. or *± range): 29.5 ± 9.5 nM; IC50 ([26]; read-out: LS174T IC50, basal WNT-pathway luciferase reporter, mean ± s.d. or *± range): 36.2 ± 9.5 nM; IC50 ([27]; read-out: p-STAT1^SER727 IC50): 7.7 ± 2.2 nM

From PMC5224920, “Assessing the mechanism and therapeutic potential of modulators of the human Mediator complex-associated protein kinases” (eLife, 2016)
